Several values for one entry are separate records, joined by “and”; a condition that tells them apart may be missing. Equal entries are not always repeated. Entries after “also recorded” stand apart in the source; their conditions may differ.
Legend:
E. coli W3110 = experiment: uptake of 14C-substrate (thymine, adenine, glutamic acid, alanine) by E. coli W3110; conditions: for adenine incorporation / alanine incorporation / glutamic acid incorporation / thymine incorporation: E. coli W3110
Description: (§1) In the Table, "glucose" was added as an energy source for cells in which propagation had been terminated and "CM" (Chloramphenicol) was added so as to terminate propagation of cells. […] Separately, instead of this composition of the foregoing additives, a composition comprising glucose, CM, 14C-substrate and colistin was added and cells were similarly obtained. The colistin was added for a comparison system to the Ba-added system because colistin is a permeation inhibitor for cell membranes (antibiotic substance).
(§2) In Table 2, the value of each numerator means a value measured by a scintillation counter and the value of each denominator means a ratio (%) to the value of the control (100%).

E. coli S = experiment: uptake of 14C-substrate (tryptophane) by E. coli S; conditions: for tryptophane incorporation: E. coli S
Description: as §1, §2

Escherichia coli [1] = experiment: influence on uptake of amino acids and nucleic acid bases by Escherichia coli (incl. time course, FIGS. 1 and 2); conditions: in words
Description: as §1

Escherichia coli [2] = experiment: outflow of incorporated substrates from Escherichia coli cells (FIG. 3); conditions: FIG. 3, in words
Adeno-carcinoma 755 [3] = experiment: Test 1: tumor weight, subcutaneously implanted Adeno-carcinoma 755; type: in vivo, mice (first filial generation of C57BL/6 and DBA/2); conditions: 11th day
Description: (§3) As the experimental animal, there were used four mice of the first filial generation of C57BL/6 and DBA/2, which were 6 to 7 weeks old. A carcinoma (Adeno-carcinoma 755) was implanted on the hypoderm in the back by using an implanting needle. […] This treatment was conduced once a day for 9 days. On the 11th day from the implantation, the weight of the tumor was measured with respect to each group to obtain the results shown in Table 3.

Adeno-carcinoma 755 [4] = experiment: Test 2: tumor weight, Adeno-carcinoma 755, intraperitoneal benzaldehyde; type: in vivo, mice (first filial generation of C57BL/6 and DBA/2); conditions: 11th day
Description: as §3
The treatment was continued for 9 days. On the 11th day from the implantation, the tumor weight was measured with respect to each group to obtain results shown in Table 4.

Ehrlich carcinoma [5] = experiment: Test 3: tumor weight, subcutaneously implanted Ehrlich carcinoma (solid tumor); type: in vivo, mice of RFVL
Description: Ten mice of RFVL which were 4 to 5 weeks old were used as the experiemental animals, and about 10^6 cells/0.2 ml of Ehrlich carcinoma were implanted subcutaneously at the right armpit. […] This treatment was continued for 9 days. On the 11th day from the tumor implantation, the tumor weight was measured with respect to each group to obtain results shown in Table 5. In each of control and treated groups, the increase of the body weight in the tested mice during the test was 3.5 g as the average value determined on 10 mice.

Ehrlich carcinoma [6] = experiment: Test 4: survival effect, intraperitoneally implanted Ehrlich carcinoma (FIG. 4); type: in vivo, mice of RFVL; conditions: 10 days
Description: Ten mice of RFVL which were 4 to 5 weeks old were used as the test animals and about 10^6 cells/0.2 ml of Ehrlich carcinoma were implanted intraperitoneally.
In FIG. 4, the suspension was administered at doses of 25, 50 and 100 mg/Kg/day to treated groups and the 0.85% biological sodium chloride solution alone was administered to a control group. Parenthesized values shown for each group are average values of the number of living days and the survival ratio.

[7] = continuous administration for 10 days, toxicity; type: in vivo
Source text: (§4) In general, Ehrlich ascites tumor is highly sensitive to conventional carcinostatic agents of cytotoxic type, and Ehrlich solid tumor is relatively lowly sensitive to most of these known carcinostatic agents. […] Thus, the composition of the present invention is very unique in the point that it is efficacious against a broadrange of carcinomatous diseases.

[8] = test system: malignant cells of adenomatous carcinoma, squamous cell carninoma, sarcoma and the like, especially undifferentiated tumors; experiment: clinical experiments, sensitivity of malignant cells; type: in vivo, human; conditions: in words
Source text: as §4

[9] = excretion from the living body; type: in vivo; conditions: in words
lymphosarcoma = experiment: effect against lymphosarcoma; conditions: in words
tumor cells of mice = experiment: control of tumor cells of mice; conditions: in words

Q: For `O=Cc1ccccc1` [benzaldehyde], which adenine incorporation (E. coli W3110; adenine, benzaldehyde 10^-1 PPM) is on record?
A: Its adenine incorporation is 3135 CPM.

Q: And the adenine incorporation (E. coli W3110; adenine, benzaldehyde 10^-2 PPM)?
A: Its adenine incorporation is 3684 CPM.

Q: What about the adenine incorporation (E. coli W3110; adenine, benzaldehyde 10^-3 PPM) of the same compound?
A: Its adenine incorporation is 4246 CPM.

Q: What about the alanine incorporation (E. coli W3110; alanine, benzaldehyde 10^-1 PPM) of the same compound?
A: The alanine incorporation was 5283 CPM.

Q: What about the alanine incorporation (E. coli W3110; alanine, benzaldehyde 10^-2 PPM) of the same compound?
A: The alanine incorporation was 5438 CPM.

Q: And the alanine incorporation (E. coli W3110; alanine, benzaldehyde 10^-3 PPM)?
A: Its alanine incorporation is 5838 CPM.

Q: And the glutamic acid incorporation (E. coli W3110; glutamic acid, benzaldehyde 10^-1 PPM)?
A: Its glutamic acid incorporation is 2842 CPM.

Q: And the glutamic acid incorporation (E. coli W3110; glutamic acid, benzaldehyde 10^-2 PPM)?
A: The glutamic acid incorporation was 2779 CPM.

Q: And the glutamic acid incorporation (E. coli W3110; glutamic acid, benzaldehyde 10^-3 PPM)?
A: The glutamic acid incorporation was 3203 CPM.

Q: And the thymine incorporation (E. coli W3110; thymine, benzaldehyde 10^-1 PPM)?
A: Its thymine incorporation is 1399 CPM.

Q: And the thymine incorporation (E. coli W3110; thymine, benzaldehyde 10^-2 PPM)?
A: The thymine incorporation was 1566 CPM.

Q: And the thymine incorporation (E. coli W3110; thymine, benzaldehyde 10^-3 PPM)?
A: The thymine incorporation was 1891 CPM.

Q: And the tryptophane incorporation (E. coli S; benzaldehyde 10^-1 PPM)?
A: Its tryptophane incorporation is 1076 CPM.

Q: And the tryptophane incorporation (E. coli S; benzaldehyde 10^-2 PPM)?
A: Its tryptophane incorporation is 915 CPM.

Q: And the tryptophane incorporation (E. coli S; benzaldehyde 10^-3 PPM)?
A: The tryptophane incorporation was 808 CPM.

Q: What about the “influence on uptake of nucleic acids and other amino acids” value (Escherichia coli [1]; substrates other than tryptophane) of the same compound?
A: Its value is “incorporation of nucleic acids and other amino acids is inhibited; also recorded: exerts an uptake inhibiting action in the case of other substrates”.

Q: What about the “influence on uptake of tryptophane” value (Escherichia coli [1]; tryptophane) of the same compound?
A: Its value is “the incorporation is promoted; also recorded: the uptake of tryptophane increases with the lapse of time; also recorded: specifically promotes the uptake of tryptophane among substrates”.

Q: And the “damage to cell membranes” value (Escherichia coli [2])?
A: Its value is “causes no damage to cell membranes”.

Q: What about the “outflow of incorporated substrate” value (Escherichia coli [2]) of the same compound?
A: Its value is “outflow of the substrate is remarkably reduced and is not changed from outflow of the substrate in the control system”.

Q: And the “Average Weight (tumor)” value (Adeno-carcinoma 755 [3]; 10 ppm suspension s.c. for 9 days, control 5.8 g)?
A: Its value is 3.8 g.

Q: And the “Tumor Weight” value (Adeno-carcinoma 755 [3]; individual animal, 10 ppm suspension 0.5 to 1.0 ml s.c. once a day for 9 days)?
A: The value was 4.6 g and 2.6 g and 4.1 g.

Q: And the “Average Weight (tumor)” value (Adeno-carcinoma 755 [4]; 3.5% suspension 0.1 ml i.p. for 9 days, control 5.90 g)?
A: The value was 3.55 g.

Q: And the “Tumor Weight” value (Adeno-carcinoma 755 [4]; individual animal, 3.5% suspension 0.1 ml i.p. once a day for 9 days)?
A: The value was 3.3 g and 3.4 g and 4.0 g and 3.5 g.

Q: What about the “increase of the body weight during the test (average)” value (Ehrlich carcinoma [5]; 10 mg/Kg i.p. for 9 days, 10 mice, same in control group) of the same compound?
A: The value was 3.5 g.

Q: What about the “Average Weight (tumor)” value (Ehrlich carcinoma [5]; 10 mg/Kg i.p. for 9 days, 11th day, control 2.79 g) of the same compound?
A: Its value is 1.24 g.

Q: And the “Tumor Weight” value (Ehrlich carcinoma [5]; individual animal, 10 mg/Kg i.p. once a day for 9 days, 11th day, 10 mg/kg)?
A: The value was 3.8 g and 2.4 g and 2.2 g and 0.8 g and 0.6 g and 0.5 g and 0.4 g and 0.3 g.

Q: What about the “effect on Ehrlich solid tumor” value (Ehrlich carcinoma [5]; solid versus ascites tumor, in words) of the same compound?
A: The value was “acts strongly on the solid tumor rather than the ascites tumor; also recorded: prominent effect on Erlich solid tumor”.

Q: And the survival effect (Ehrlich carcinoma [6]; 50 mg/Kg per day i.p.)?
A: The survival effect was 15.4%.

Q: And the survival effect (Ehrlich carcinoma [6]; 100 mg/Kg per day i.p.)?
A: The survival effect was 26.9%.

Q: And the “daily dose without bad influences such as toxicity on the host” value ([7]; administered continuously for 10 days)?
A: The value was “up to 200 mg/Kg”.

Q: And the NOAEL at 240 h ([7]; in vivo, ip, continuous intraperitoneal injection for 10 days, read-out: daily dose at which no toxicity is observed)?
A: The NOAEL at 240 h was ≥ 200 mg/kg/day.

Q: And the side effects ([7]; in words)?
A: The side effects was “causes no side effects”.

Q: What about the “sensitivity of malignant cells” value [8] of the same compound?
A: The value was “highly sensitive to benzaldehyde”.

Q: What about the “excretion from the living body” value [9] of the same compound?
A: Its value is “promptly excreted from the living body; also recorded: promptly extracted from living bodies”.

Q: What about the effect against lymphosarcoma (lymphosarcoma) of the same compound?
A: Its effect against lymphosarcoma is “effective against lymphosarcoma”.

Q: What about the “control of tumor cells of mice” value (tumor cells of mice) of the same compound?
A: Its value is “effective for controlling tumor cells of mice”.

Q: Which results are given for colistin [reference compound]?
A: adenine incorporation (E. coli W3110; adenine, colistin 5 PPM): 1066 CPM; adenine incorporation, ratio (%) to the control (E. coli W3110; adenine, colistin 5 PPM, control 100%): 23%; alanine incorporation (E. coli W3110; alanine, colistin 5 PPM): 1009 CPM; alanine incorporation, ratio (%) to the control (E. coli W3110; alanine, colistin 5 PPM, control 100%): 17%; glutamic acid incorporation (E. coli W3110; glutamic acid, colistin 5 PPM): 670 CPM; glutamic acid incorporation, ratio (%) to the control (E. coli W3110; glutamic acid, colistin 5 PPM, control 100%): 16%; thymine incorporation (E. coli W3110; thymine, colistin 5 PPM): 333 CPM; thymine incorporation, ratio (%) to the control (E. coli W3110; thymine, colistin 5 PPM, control 100%): 16%; tryptophane incorporation (E. coli S; colistin 5 PPM): 439 CPM; tryptophane incorporation, ratio (%) to the control (E. coli S; colistin 5 PPM, control 100%): 65%; damage to cell membranes (Escherichia coli [2]): cell membranes are destroyed; outflow of incorporated substrate (Escherichia coli [2]): outflow of the substrate is extreme

From patent US4983636A, “Composition and method of treating selected malignant conditions” (Rikagaku Kenkyusho Wako, priority 1976, dated 1991)
